Data taken from patent US11286242B2 (priority 2018, dated 2022).

Key:
Phakopsora pachyrhizi = Phakopsora pachyrhizi test in soybean, preventive spray; format: in vivo; conditions: preventive spray on soybean plants, inoculated one day after treatment, greenhouse 25° C., 90% relative humidity, read-out: control (efficacy, disease severity rating) compared to the untreated check
Experimental: Example 8: Phakopsora pachyrhizi Test in Soybean
Compounds were dissolved in 2% DMSO/Acetone & then mixed with water to the calibrated spray volume of 50 mL and poured into the spray bottles for further applications.
To test the preventive activity of compounds, healthy young soybean plants raised in the greenhouse were sprayed with active compound preparation at the stated application rates inside the spray cabinets using hallowcone nozzles. One day after treatment, the plants were inoculated with spore suspension containing 2.1×10^6 Phakopsora pachyrhizi inoculum. The inoculated plants were then kept in greenhouse chamber at 25° C. temperature & 90% relative humidity for disease expression.
A visual assessment of compound's performance was carried out by rating the disease severity (0-100% scale) on treated plants on 3, 7, 10 & 15 days after application. Efficacy (% control) of the compounds was calculated by comparing the disease rating in the treatment with the one of the untreated control. The sprayed plants were also assessed for compound's plant compatibility by recording symptoms like necrosis, chlorosis & stunting.

Alternaria solani = Alternaria solani (early blight of tomato/potato) radial mycelial growth on Potato Dextrose Agar; format: cell-based; conditions: 168 h, Potato Dextrose Agar, 25° C., 60% relative humidity, seven days, read-out: control compared to the untreated check
Experimental: Example 4: Alternaria solani (Early Blight of Tomato/Potato)
(§1) Compounds were dissolved in 0.3% DMSO & then added to Potato Dextrose Agar medium just prior to dispensing it into petri dishes. 5 mL medium with compound in the desired concentration was dispensed into 60 mm sterile petri-plates. After solidification each plate was seeded with 5 mm size mycelial disc taken form periphery of actively growing virulent culture plate. Plates were incubated in growth chambers at 25° C. temperature and 60% relative humidity for seven days and radial growth was measured.

Botrytis cinerea = Botrytis cinerea (gray mold) radial mycelial growth on Potato Dextrose Agar; format: cell-based; conditions: 168 h, 22° C., 90% relative humidity, seven days, read-out: control compared to the untreated check
Experimental: Example 3: Botrytis cinerea (Gray Mold)
as §1, with “solidification,” for “solidification”, “22°” for “25°”, “90%” for “60%”

Pyricularia oryzae = test: microbe, parasite or virus in culture; format: cell-based; conditions: 168 h, read-out: control compared to the untreated check
Colletotrichum capsici = Colletotrichum capsici (anthracnose) radial mycelial growth on Potato Dextrose Agar; format: cell-based; conditions: Colletotrichum truncatum, 168 h, 25° C., 60% relative humidity, seven days, read-out: control compared to the untreated check
Experimental: Example 5: Colletotrichum capsici (Anthracnose)
as §1, with “solidification,” for “solidification”

Structure (SMILES)	pest or weed control at 500 ppm (Phakopsora pachyrhizi) [%]	inhibition of growth at 300 ppm (Alternaria solani) [%]	inhibition of growth at 300 ppm (Botrytis cinerea) [%]	inhibition of growth at 300 ppm (Pyricularia oryzae) [%]	inhibition of growth at 300 ppm (Colletotrichum capsici) [%]
CS(=O)(=Nc1ccc(-c2noc(C(F)(F)F)n2)cc1)c1cccc(F)c1 (centres unmarked) [Compound 14, (3-fluorophenyl)(methyl)((4-(5-(trifluoromethyl)-1,2,4-oxadiazol-3-yl)phenyl)imino)-λ^6-sulfanone]	> 90	> 70	> 70	> 70	–
COc1ccc(S(C)(=O)=Nc2ccc(-c3noc(C(F)(F)F)n3)cc2)cc1 (centres unmarked) [Compound 20, (4-methoxyphenyl)(methyl)((4-(5-(trifluoromethyl)-1,2,4-oxadiazol-3-yl)phenyl)imino)-λ^6-sulfanone]	> 90	> 70	–	> 70	–
CS(=O)(=NC(=O)c1ccc(-c2noc(C(F)(F)F)n2)cc1)c1ccc(F)cc1F (centres unmarked) [Compound 47, N-((2,4-difluorophenyl)(methyl)(oxo)-λ^6-sulfaneylidene)-4-(5-(trifluoromethyl)-1,2,4-oxadiazol-3-yl)benzamide]	> 90	> 70	–	–	–
CS(=O)(=NC(=O)c1ccc(-c2noc(C(F)(F)F)n2)cc1)c1nccs1 (centres unmarked) [Compound 48, N-(methyl(oxo)(thiazol-2-yl)-λ^6-sulfaneylidene)-4-(5-(trifluoromethyl)-1,2,4-oxadiazol-3-yl)benzamide]	> 90	> 70	> 70	–	–
CS(=O)(Cc1ccccn1)=NC(=O)c1ccc(-c2noc(C(F)(F)F)n2)cc1 (centres unmarked) [Compound 52, N-(methyl(oxo)(pyridin-2-ylmethyl)-λ^6-sulfaneylidene)-4-(5-(trifluoromethyl)-1,2,4-oxadiazol-3-yl)benzamide]	> 90	> 70	–	–	–
COc1ccc(S(C)(=O)=NC(=O)c2ccc(-c3noc(C(F)(F)F)n3)cc2)c(OC)c1 (centres unmarked) [Compound 56, N-((2,4-dimethoxyphenyl)(methyl)(oxo)-λ^6-sulfaneylidene)-4-(5-(trifluoromethyl)-1,2,4-oxadiazol-3-yl)benzamide]	> 90	> 70	–	–	–
CS(=O)(Cc1ccncc1)=NC(=O)c1ccc(-c2noc(C(F)(F)F)n2)cc1 (centres unmarked) [Compound 59, N-(mehtyl(oxo)(pyridin-4-ylmethyl)-λ^6-sulfaneylidene)-4-(5-(trifluoromethyl)-1,2,4-oxadiazol-3-yl)benzamide]	> 90	> 70	–	–	–
CS(=O)(Cc1cc(F)ccc1F)=NC(=O)c1ccc(-c2noc(C(F)(F)F)n2)cc1 (centres unmarked) [Compound 62, N-((2,5-difluorobenzyl)(methyl)(oxo)-λ^6-sulfaneylidene)-4-(5-(trifluoromethyl)-1,2,4-oxadiazol-3-yl)benzamide]	> 90	> 70	–	–	–
COc1ccc(S(C)(=O)=NC(=O)c2cccc(-c3noc(C(F)(F)F)n3)c2)cc1 (centres unmarked) [Compound 71, N-((4-methoxyphenyl)(methyl)(oxo)-λ^6-sulfaneylidene)-3-(5-(trifluoromethyl)-1,2,4-oxadiazol-3-yl)benzamide]	> 90	> 70	–	–	–
CS(=O)(Cc1ccc(C#N)cc1)=NC(=O)c1cccc(-c2noc(C(F)(F)F)n2)c1 (centres unmarked) [Compound 75, N-((4-cyanobenzyl)(methyl)(oxo)-λ^6-sulfaneylidene)-3-(5-(trifluoromethyl)-1,2,4-oxadiazol-3-yl)benzamide]	> 90	> 70	–	–	–
CS(=O)(Cc1ccc(C(F)(F)F)cc1)=Nc1ccc(-c2noc(C(F)(F)F)n2)cc1 (centres unmarked) [Compound 90, methyl((4-(5-(trifluoromethyl)-1,2,4-oxadiazol-3-yl)phenyl)imino)(4-(trifluoromethyl)benzyl)-λ^6-sulfanone]	–	–	> 70	–	–
COc1ccc(S(C)(=O)=Nc2ccc(-c3noc(C(F)(F)F)n3)cc2)c(OC)c1 (centres unmarked) [Compound 96, (2,4-dimethoxyphenyl)(methyl)((4-(5-(trifluoromethyl)-1,2,4-oxadiazol-3-yl)phenyl)imino)-λ^6-sulfanone]	> 90	> 70	–	> 70	–
CS(=O)(Cc1ccc(Cl)c(F)c1)=Nc1ccc(-c2noc(C(F)(F)F)n2)cc1 (centres unmarked) [Compound 99, (4-chloro-3-florobenzyl)(methyl)((4-(5-(trifluoromethyl)-1,2,4-oxadiazol-3-yl)phenyl)imino)-λ^6-sulfanone]	> 90	> 70	–	–	–
COc1ccc(S(C)(=O)=Nc2ccc(-c3noc(C(F)(F)F)n3)nc2)cc1 (centres unmarked) [Compound 108, (4-methoxyphenyl)(methyl)((6-(5-(trifluoromethyl)-1,2,4-oxadiazol-3-yl)pyridin-3-yl)imino)-λ^6-sulfanone]	> 90	> 70	> 70	–	–
CS(=O)(=Nc1ccc(-c2noc(C(F)(F)F)n2)nc1)c1ccccc1 (centres unmarked) [Compound 109, methyl(phenyl)((6-(5-(trifluoromethyl)-1,2,4-oxadiazol-3-yl)pyridin-3-yl)imino)-λ^6-sulfanone]	> 90	> 70	> 70	–	–
Cc1csc(S(C)(=O)=Nc2ccc(-c3noc(C(F)(F)F)n3)cc2)n1 (centres unmarked) [Compound 117, methyl(4-methylthiazol-2-yl)((4-(5-(trifluoromethyl)-1,2,4-oxadiazol-3-yl)phenyl)imino)-λ^6-sulfanone]	–	> 70	–	> 70	–
Cc1ccc(S(C)(=O)=NCc2ccc(-c3noc(C(F)(F)F)n3)cc2)cc1 (centres unmarked) [Compound 137, methyl(p-tolyl)((4-(5-(trifluoromethyl)-1,2,4-oxadiazol-3-yl)benzyl)imino)-λ^6-sulfanone]	–	> 70	–	> 70	–
CS(=O)(=NCc1cccc(-c2noc(C(F)(F)F)n2)c1)c1ccccc1 (centres unmarked) [Compound 138, methyl(phenyl)((3-(5-(trifluoromethyl)-1,2,4-oxadiazol-3-yl)benzyl)imino)-λ^6-sulfanone]	–	–	> 70	> 70	–
COc1ccc(S(C)(=O)=NCc2cccc(-c3noc(C(F)(F)F)n3)c2)cc1 (centres unmarked) [Compound 139, (4-methoxyphenyl)(methyl)((3-(5-(trifluoromethyl)-1,2,4-oxadiazol-3-yl)benzyl)imino)-λ^6-sulfanone]	–	–	> 70	> 70	–
COc1ccc(S(C)(=O)=NCc2cccc(-c3noc(C(F)(F)F)n3)c2)c(OC)c1 (centres unmarked) [Compound 140, (2,4-dimethoxyphenyl)(methyl)((3-(5-(trifluoromethyl)-1,2,4-oxadiazol-3-yl)benzyl)imino)-sulfanone]	–	–	> 70	–	–
CS(=O)(=NCc1cccc(-c2noc(C(F)(F)F)n2)c1)c1ccccc1F (centres unmarked) [Compound 148, (2-fluorophenyl)(methyl)((3-(5-(trifluoromethyl)-1,2,4-oxadiazol-3-yl)benzyl)imino)-λ^6-sulfanone]	–	> 70	–	> 70	–
Cc1ccc(S(=O)(=O)NC(=O)c2ccc(-c3noc(C(F)(F)F)n3)cc2)cc1 [Compound 153, N-tosyl-4-(5-(trifluoromethyl)-1,2,4-oxadiazol-3-yl)benzamide]	–	–	> 70	–	–
COc1ccc(S(=O)(=O)NC(=O)c2ccc(-c3noc(C(F)(F)F)n3)cc2)cc1 [Compound 157, N-((4-methoxyphenyl)sulfonyl)-4-(5-(trifiuoromethyl)-1,2,4-oxadiazol-3-yl)benzamide]	–	> 70	> 70	–	–
O=C(NS(=O)(=O)c1c(Cl)cccc1Cl)c1ccc(-c2noc(C(F)(F)F)n2)cc1 [Compound 163, N-((2,6-dichlorophenyl)sulfonyl)-4-(5-(trifiuoromethyl)-1,2,4-oxadiazol-3-yl)benzamide]	–	> 70	–	–	–
CS(=O)(=NC(=O)C1CC1)c1ccc(-c2noc(C(F)(F)F)n2)cc1 (centres unmarked) [Compound 181, N-(methyl(oxo)(4-(5-(trifluoromethyl)-1,2,4-oxadiazol-3-yl)phenyl)-λ^6-sulfaneylidene)cyclopropanecarboxamide]	–	–	–	> 70	> 70
